Results: patent US6653300B2, “Pyrazole compounds useful as protein kinase inhibitors” (Vertex Pharmaceuticals Incorporated, priority 2000, dated 2003)

Test system: not given
Assay: not given
Conditions: not given

| melting point [°C] | SMILES |
| --- | --- |
| 267 to 269 | c1ccc(Nc2nc(Nc3cc(C4CC4)[nH]n3)cc(-c3ccccc3)n2)cc1 [IIIc-2, (5-Cyclopropyl-2H-pyrazol-3-yl)-(6-phenyl-2-phenylamino-pyrimidin-4-yl)-amine] |
| 267 to 270 | Cc1cccc(Nc2nc(Nc3cc(C4CC4)[nH]n3)cc(-c3ccccc3)n2)c1 [IIIc-3, (5-Cyclopropyl-2H-pyrazol-3-yl)-[2-(3-methylphenylamino)-6-phenyl-pyrimidin-4-yl]-amine] |
| 217 | Cc1cc(Nc2nc(N(CCO)c3ccccc3)nc3ccccc23)n[nH]1 [IIc-1, {2-[(2-Hydroxyethyl)phenylamino]-quinazolin-4-yl}-(5-methyl-2H-pyrazol-3-yl)-amine] |
| > 250 | Cc1cc(Nc2nc(Nc3ccc4cn[nH]c4c3)nc3ccccc23)n[nH]1 [IIc-9, [2-(1H-Indazol-6-ylamino)-quinazolin-4-yl]-(5-methyl-2H-pyrazol-3-yl)-amine] |

Biological target: T1, GSK-3β (AA 1-420) (Homo sapiens, UniProt P49841)
T1 construct: GSK-3β (AA 1-420)
T1 sequence (P49841 whole entry, the tested form may be a part): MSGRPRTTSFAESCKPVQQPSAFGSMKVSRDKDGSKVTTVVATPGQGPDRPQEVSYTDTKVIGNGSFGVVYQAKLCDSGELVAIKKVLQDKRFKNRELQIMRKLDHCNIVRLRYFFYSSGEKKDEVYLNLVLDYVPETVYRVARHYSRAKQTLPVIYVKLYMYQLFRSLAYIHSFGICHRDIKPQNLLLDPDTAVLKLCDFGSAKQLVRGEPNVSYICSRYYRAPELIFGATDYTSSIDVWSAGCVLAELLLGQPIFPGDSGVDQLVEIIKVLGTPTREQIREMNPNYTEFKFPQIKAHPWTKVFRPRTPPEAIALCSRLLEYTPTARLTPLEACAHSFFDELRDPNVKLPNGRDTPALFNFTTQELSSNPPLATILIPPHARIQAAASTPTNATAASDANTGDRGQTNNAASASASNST
Assay: Ki determination for the inhibition of GSK-3 (coupled enzyme system)
Assay type: biochemical
Conditions: 20 μM ATP, 20 nM GSK-3β, 30° C.
Method: Compounds were screened for their ability to inhibit GSK-3β (AA 1-420) activity using a standard coupled enzyme system (Fox et al. (1998) Protein Sci. 7, 2249). Reactions were carried out in a solution containing 100 mM HEPES (pH 7.5), 10 mM MgCl2, 25 mM NaCl, 300 μM NADH, 1 mM DTT and 1.5% DMSO. Final substrate concentrations in the assay were 20 μM ATP (Sigma Chemicals, St Louis, Mo.) and 300 μM peptide (HSSPHQS (PO3H2) EDEEE, American Peptide, Sunnyvale, Calif.). Reactions were carried out at 30° C. and 20 nM GSK-3β. Final concentrations of the components of the coupled enzyme system were 2.5 mM phosphoenolpyruvate, 300 μM NADH, 30 μg/ml pyruvate kinase and 10 μg/ml lactate dehydrogenase.
An assay stock buffer solution was prepared containing all of the reagents listed above with the exception of ATP and the test compound of interest. The assay stock buffer solution (175 μl) was incubated in a 96 well plate with 5 μl of the test compound of interest at final concentrations spanning 0.002 μM to 30 μM at 30° C. for 10 min. […] The reaction was initiated by the addition of 20 μl of ATP (final concentration 20 μM). Rates of reaction were obtained using a Molecular Devices Spectramax plate reader (Sunnyvale, Calif.) over 10 min at 30° C. The Ki values were determined from the rate data as a function of inhibitor concentration.

| Ki [µM] | SMILES |
| --- | --- |
| 1 to 7 | CCC(=O)Nc1ccc(Sc2nc(CO)cc(Nc3cc(C)n[nH]3)n2)cc1 [IIIa-45, [6-Hydroxymethyl-2-(4-propionylamino-phenyl-sulfanyl)-pyrimidin-4-yl]-(5-methyl-2H-pyrazol-3-yl)-amine] |
| < 0.1 | Cc1cc(Nc2nc(C3CC3c3ccccc3)nc3ccccc23)n[nH]1 (centres unmarked) [IId-19, (5-Methyl-1H-pyrazol-3-yl)-[2-(2-phenyl-cyclopropyl)-quinazolin-4-yl]-amine] |
| 0.1 to 1 | Cc1cc(Nc2cc(N3CCN(C)CC3)nc(SCc3cccc(Cl)c3)n2)n[nH]1 [IIIa-30, [2-(3-Chloro-benzylsulfanyl)-6-(4-methylpiperazin-1-yl)-pyrimidin-4-yl]-(5-methyl-2H-pyrazol-3-yl)-amine] |
| < 0.1 | Cc1cc(Nc2cc(-c3ccccc3)nc(Oc3ccc(NC(=O)C(C)C)cc3)n2)n[nH]1 [IIIb-13] |
| 1 to 7 | COc1cc(CSc2nc(Nc3cc(C)[nH]n3)cc(N3CCCC3)n2)cc(OC)c1 [IIIa-41, [2-(3,5-Dimethoxy-benzylsulfanyl)-6-pyrrolidin-4-yl-pyrimidin-4-yl]-(5-methyl-2H-pyrazol-3-yl)-amine] |
| 1 to 7 | CNC(=O)c1cc(Nc2cc(C)[nH]n2)nc(Sc2ccc(NC(C)=O)cc2)n1 [IIIa-49] |
| 0.1 to 1 | Cc1cc(Nc2cc(N3CCOCC3)nc(SCc3ccccc3)n2)n[nH]1 [IIIa-29, [2-Benzylsulfanyl-6-morpholin-4-yl-pyrimidin-4-yl]-(5-methyl-2H-pyrazol-3-yl)-amine] |
| 1 to 7 | Cc1cc(Nc2cc(-c3ccccc3)[nH]n2)nc(Nc2nc3ccccc3[nH]2)n1 [IIIc-16, [2-(Benzimidazol-2-ylamino)-6-methyl-pyrimidin-4-yl]-(5-phenyl-2H-pyrazol-3-yl)-amine] |
| < 0.1 | COCc1cc(Nc2cc(C)[nH]n2)nc(Nc2ccc(Cl)cc2)n1 [IIIc-21, [2-(4-Chlorophenyl)amino-6-methoxymethyl-pyrimidin-4-yl]-(5-methyl-2H-pyrazol-3-yl)-amine] |
| 0.1 to 1 | Cc1cc(Nc2cc(-c3ccccc3)nc(Oc3ccc4ccccc4c3)n2)n[nH]1 [IIIb-12] |
| 0.1 to 1 | Cc1cc(Nc2nc(Nc3ccccc3)nc(C)c2C)n[nH]1 [IIIc-20, (5,6-Dimethyl-2-phenylamino-pyrimidin-4-yl)-(5-methyl-2H-pyrazol-3-yl)-amine] |
| 0.1 to 1 | Cc1cc(Nc2nc(Nc3ccccc3)nc3c2CCCCC3)n[nH]1 [IIc-79, (5-Methyl-2H-pyrazol-3-yl)-(2-phenylamino-6,7,8,9-tetrahydro-5H-cycloheptapyrimidin-4-yl)-amine] |
| 0.1 to 1 | CC(=O)Nc1ccc(Oc2nc(Nc3cc(C)[nH]n3)cc(-c3ccccc3)n2)cc1 [IIIb-11] |
| 1 to 7 | CCC(=O)Nc1ccc(Sc2nc(COC)cc(Nc3cc(C)[nH]n3)n2)cc1 [IIIa-38, [6-Methoxymethyl-2-(4-propionylamino-phenyl-sulfanyl)-pyrimidin-4-yl]-(5-methyl-2H-pyrazol-3-yl)-amine] |
| 0.1 to 1 | COc1ccc(CSc2nc(Nc3cc(C)[nH]n3)cc(N3CCN(C)CC3)n2)cc1 [IIIa-31, [2-(4-methoxy-benzylsulfanyl)-6-(4-methylpiperazin-1-yl)-pyrimidin-4-yl]-(5-methyl-2H-pyrazol-3-yl)-amine] |
| 0.1 to 1 | COCc1cc(Nc2cc(C)[nH]n2)nc(Nc2ccccc2)n1 [IIIc-23, (6-Methoxymethyl-2-phenylamino-pyrimidin-4-yl)-(5-methyl-2H-pyrazol-3-yl)-amine] |
| < 0.1 | N#CCc1ccc(Nc2nc(Nc3n[nH]c4ccccc34)c3ccccc3n2)cc1 [IIc-77, [2-(4-Cyanomethylphenylamino)-quinazolin-4-yl]-(1H-indazol-3-yl)-amine] |
| 0.1 to 1 | Cc1cc(Nc2cc(-c3ccccc3)nc(Nc3ccccc3)n2)n[nH]1 [IIIc-1, (5-Methyl-2H-pyrazol-3-yl)-(6-phenyl-2-phenylamino-pyrimidin-4-yl)-amine] |

Second part, the molecule before the results:

| SMILES | Ki [µM] |
| --- | --- |
| Fc1cccc2c(Nc3nc(C4CC4c4ccccc4)nc4ccccc34)n[nH]c12 (centres unmarked) [IId-17, (7-Fluoro-1H-indazol-3-yl)-[2-(2-phenyl-cyclopropyl)-quinazolin-4-yl]-amine] | 0.1 to 1 |
| Cc1cc(Nc2nc(C(C)(C)c3ccccc3)nc3c2CCCCC3)n[nH]1 [IId-14] | < 0.1 |
| Cc1cc(Nc2cc(C)[nH]n2)nc(Nc2ccccc2)n1 [IIIc-24, (6-Methyl-2-phenylamino-pyrimidin-4-yl)-(5-methyl-2H-pyrazol-3-yl)-amine] | < 0.1 |
| FC(F)(F)c1ccc(Nc2nc(Nc3n[nH]c4ccccc34)c3ccccc3n2)cc1 [IIc-72, (1H-Indazol-3-yl)-[2-(4-trifluoromethylphenylamino)-quinazolin-4-yl]-amine] | 0.1 to 1 |
| Cc1cc(Nc2nc(Nc3ccc(Cl)cc3)nc(C)c2C)n[nH]1 [IIIc-19, [2-(4-Chlorophenyl)amino-5,6-dimethyl-pyrimidin-4-yl]-(5-methyl-2H-pyrazol-3-yl)-amine] | < 0.1 |
| c1ccc(Nc2nc(Nc3n[nH]c4ccccc34)c3ccccc3n2)cc1 [IIc-70, (1H-Indazol-3-yl)-(2-phenylamino-quinazolin-4-yl)-amine] | 1 to 7 |
| Cc1cc(Nc2cc(N3CCN(C)CC3)nc(SCc3ccccc3)n2)n[nH]1 [IIIa-28, [2-Benzylsulfanyl-6-(4-methylpiperazin-1-yl)-pyrimidin-4-yl]-(5-methyl-2H-pyrazol-3-yl)-amine] | 1 to 7 |
| c1ccc(C2CC2c2nc(Nc3n[nH]c4ccccc34)c3ccccc3n2)cc1 (centres unmarked) [IId-16, (1H-Indazol-3-yl)-[2-(2-phenyl-cyclopropyl)-quinazolin-4-yl]-amine] | 0.1 to 1 |
| Cc1cc(Nc2cc(-c3ccco3)[nH]n2)nc(Nc2nc3ccccc3[nH]2)n1 [IIIc-17, [2-(Benzimidazol-2-ylamino)-6-methyl-pyrimidin-4-yl]-[5-(Furan-2-yl)-2H-pyrazol-3-yl]-amine] | 1 to 7 |
| COCc1cc(Nc2cc(C)[nH]n2)nc(Nc2nc3ccccc3[nH]2)n1 [IIIc-22, [2-(Benzimidazol-2-ylamino)-6-methoxymethyl-pyrimidin-4-yl]-(5-methyl-2H-pyrazol-3-yl)-amine] | 1 to 7 |
| Cc1cc(Nc2nc(Nc3ccccc3)nc3c2CCCC3)n[nH]1 [IIc-45, (5-Methyl-2H-pyrazol-3-yl)-(2-phenylamino-5,6,7,8-tetrahydroquinazolinin-4-yl)-amine] | 0.1 to 1 |
| Fc1ccc2[nH]nc(Nc3nc(C4CC4c4ccccc4)nc4ccccc34)c2c1 (centres unmarked) [IId-18, (5-Fluoro-1H-indazol-3-yl)-[2-(2-phenyl-cyclopropyl)-quinazolin-4-yl]-amine] | 0.1 to 1 |
| Cc1cc(Nc2cc(C)[nH]n2)nc(Nc2ccc(Cl)cc2)n1 [IIIc-18, [2-(4-Chlorophenylamino)-6-methyl-pyrimidin-4-yl]-(5-methyl-2H-pyrazol-3-yl)-amine] | < 0.1 |
| COc1cc(-c2cc(Nc3cc(C)[nH]n3)nc(Nc3ccc(S(N)(=O)=O)cc3)n2)cc(OC)c1OC [IIIc-8, (5-Methyl-2H-pyrazol-3-yl)-[2-(4-sulfamoylphenylamino)-6-(3,4,5-trimethoxyphenyl)-pyrimidin-4-yl]-amine] | 0.1 to 1 |
| Cc1cc(Nc2cc(N3CCOCC3)nc(SCc3ccc(S(=O)(=O)N4CCOCC4)cc3)n2)n[nH]1 [IIIa-35, (5-Methyl-2H-pyrazol-3-yl)-{2-[4-(morpholinesulfonyl)-benzylsulfanyl]-6-morpholin-4-yl-pyrimidin-4-yl}-amine] | 1 to 7 |
| CC(=O)Nc1ccc(Sc2nc(Nc3cc(C)[nH]n3)cc(-c3ccccc3)n2)cc1 [IIIa-11, [2-(4-Acetamido-phenylsulfanyl)-6-phenyl-pyrimidin-4-yl]-(5-methyl-2H-pyrazol-3-yl)-amine] | 0.1 to 1 |
| CCC(=O)Nc1ccc(Sc2nc(Nc3cc(C)[nH]n3)cc(-c3ccccc3)n2)cc1 [IIIa-15, (5-Methyl-2H-pyrazol-3-yl)-[6-phenyl-2-(4-propionylamino-phenylsulfanyl)-pyrimidin-4-yl]-amine] | 1 to 7 |
| Cc1cc(Nc2nc(Nc3ccc(Cl)cc3)nc3c2CCCC3)n[nH]1 [IIc-78, [2-(4-Chlorophenylamino)-5,6,7,8-tetrahydroquinazolinin-4-yl]-(5-methyl-2H-pyrazol-3-yl)-amine] | < 0.1 |
| Cc1cc(Nc2cc(C)[nH]n2)nc(C(C)(C)c2ccccc2)n1 [IIId-21] | < 0.1 |
